The source of these data is ChEMBL document CHEMBL1909046, “DrugMatrix in vitro pharmacology data”.

The target in data set [1] is Sigma non-opioid intracellular receptor 1 (Homo sapiens, UniProt Q99720). Briefly: DRUGMATRIX: Sigma1 radioligand binding (ligand: [3H] Haloperidol). The format is cell membranes, Jurkat, Membrane. The conditions noted are these: Not Active = under 50% inhibition at 10 µM; for Ki: read-out: Ki.
Data set [2] concerns the target T1, Cholecystokinin receptor type A (Homo sapiens, UniProt P32238). Note: in other assays of this panel Not Active means under 50% inhibition at 10 µM.
T1 sequence (P32238 whole entry): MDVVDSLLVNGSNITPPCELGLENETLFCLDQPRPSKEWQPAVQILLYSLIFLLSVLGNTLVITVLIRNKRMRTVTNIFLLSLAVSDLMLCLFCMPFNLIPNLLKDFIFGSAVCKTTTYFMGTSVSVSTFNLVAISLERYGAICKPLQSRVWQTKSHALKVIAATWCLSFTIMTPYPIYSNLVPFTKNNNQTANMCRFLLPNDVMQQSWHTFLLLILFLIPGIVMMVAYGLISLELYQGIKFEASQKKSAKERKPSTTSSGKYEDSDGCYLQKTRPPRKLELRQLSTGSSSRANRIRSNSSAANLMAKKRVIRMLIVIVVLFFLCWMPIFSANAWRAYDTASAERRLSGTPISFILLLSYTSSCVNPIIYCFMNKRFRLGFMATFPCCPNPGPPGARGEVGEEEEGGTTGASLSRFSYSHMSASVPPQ
The format is cell membranes, Membrane. The conditions noted are these: 1321-n1.

A further data set addresses Histamine H2 receptor (Homo sapiens, UniProt P25021). In kind it is cell membranes, CHO-K1, Membrane.
The target in data set [3] is T2, Polyunsaturated fatty acid lipoxygenase ALOX15 (Oryctolagus cuniculus, UniProt P12530).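 Note: inhibition of 15-lipoxygenase enzyme activity measured with linoleic acid as the substrate; in other assays of this panel Not Active means under 50% inhibition at 10 µM.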
T2 sequence (P12530 whole entry): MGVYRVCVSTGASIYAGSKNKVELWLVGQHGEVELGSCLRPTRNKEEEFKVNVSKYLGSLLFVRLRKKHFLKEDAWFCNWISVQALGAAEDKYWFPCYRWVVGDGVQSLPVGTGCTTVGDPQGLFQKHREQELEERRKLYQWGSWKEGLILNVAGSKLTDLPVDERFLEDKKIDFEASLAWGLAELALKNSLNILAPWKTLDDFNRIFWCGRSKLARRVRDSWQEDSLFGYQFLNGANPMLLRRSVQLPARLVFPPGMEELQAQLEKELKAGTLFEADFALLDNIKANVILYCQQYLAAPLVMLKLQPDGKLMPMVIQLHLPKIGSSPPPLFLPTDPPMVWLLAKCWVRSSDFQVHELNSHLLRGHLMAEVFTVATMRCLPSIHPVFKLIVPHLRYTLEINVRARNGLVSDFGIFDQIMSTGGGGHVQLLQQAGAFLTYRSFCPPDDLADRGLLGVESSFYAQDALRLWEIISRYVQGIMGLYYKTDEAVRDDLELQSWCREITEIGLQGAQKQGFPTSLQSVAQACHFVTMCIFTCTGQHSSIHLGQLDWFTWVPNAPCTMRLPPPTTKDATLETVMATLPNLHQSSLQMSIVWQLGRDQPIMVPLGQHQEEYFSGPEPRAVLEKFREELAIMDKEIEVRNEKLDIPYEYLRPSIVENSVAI
In words: biochemical. The format is tissue-based, Reticulocytes. The conditions noted are these: reticulocytes.

The target in data set [4] is Tyrosine-protein kinase Lck (Homo sapiens, UniProt P06239). Briefly: DRUGMATRIX: Protein Tyrosine Kinase, LCK enzyme inhibition (substrate: Poly(Glu:Tyr)). In kind it is cell-based, Insect cells. As to conditions: insect cells; Not Active = under 50% inhibition at 10 µM.
Another data set concerns the target Cytochrome P450 2D6 (Homo sapiens, UniProt P10635). As to conditions: bti-tn-5b1-4. Note: in other assays of this panel Not Active means under 50% inhibition at 10 µM.

For orientation: IC50 means the concentration at which inhibition is half-maximal. The Ki is the dissociation constant of the complex between target and ligand, obtained from inhibition or displacement.

Chain of Sigma non-opioid intracellular receptor 1 (Q99720 whole entry): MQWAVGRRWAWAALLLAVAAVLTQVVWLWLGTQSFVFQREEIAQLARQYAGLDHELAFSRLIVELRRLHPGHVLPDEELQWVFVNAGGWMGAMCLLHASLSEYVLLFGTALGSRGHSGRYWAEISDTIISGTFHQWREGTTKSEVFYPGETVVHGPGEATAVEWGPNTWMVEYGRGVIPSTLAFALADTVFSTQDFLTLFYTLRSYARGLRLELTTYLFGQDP
Chain of Histamine H2 receptor (P25021 whole entry): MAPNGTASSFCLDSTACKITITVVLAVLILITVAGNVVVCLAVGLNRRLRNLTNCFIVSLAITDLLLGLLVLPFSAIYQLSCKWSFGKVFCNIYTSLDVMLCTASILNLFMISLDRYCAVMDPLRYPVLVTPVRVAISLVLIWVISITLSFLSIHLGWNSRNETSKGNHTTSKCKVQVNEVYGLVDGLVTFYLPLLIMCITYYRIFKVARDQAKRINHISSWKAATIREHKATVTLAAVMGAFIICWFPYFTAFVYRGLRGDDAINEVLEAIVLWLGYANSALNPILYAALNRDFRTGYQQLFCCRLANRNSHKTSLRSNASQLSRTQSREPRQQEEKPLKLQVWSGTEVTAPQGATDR
Chain of Tyrosine-protein kinase Lck (P06239 whole entry): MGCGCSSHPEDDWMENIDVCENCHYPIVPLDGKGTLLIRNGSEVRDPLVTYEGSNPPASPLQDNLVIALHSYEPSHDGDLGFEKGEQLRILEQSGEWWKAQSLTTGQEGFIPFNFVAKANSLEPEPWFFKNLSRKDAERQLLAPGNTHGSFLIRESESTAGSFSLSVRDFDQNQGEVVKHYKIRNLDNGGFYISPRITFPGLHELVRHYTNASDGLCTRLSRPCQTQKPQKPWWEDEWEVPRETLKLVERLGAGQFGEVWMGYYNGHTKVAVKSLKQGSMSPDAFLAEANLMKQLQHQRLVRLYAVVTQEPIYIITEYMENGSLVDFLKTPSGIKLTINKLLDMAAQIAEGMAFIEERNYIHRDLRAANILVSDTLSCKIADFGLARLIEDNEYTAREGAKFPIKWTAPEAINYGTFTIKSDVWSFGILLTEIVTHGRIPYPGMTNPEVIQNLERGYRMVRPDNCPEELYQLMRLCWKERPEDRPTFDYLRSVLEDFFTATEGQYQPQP
Chain of Cytochrome P450 2D6 (P10635 whole entry): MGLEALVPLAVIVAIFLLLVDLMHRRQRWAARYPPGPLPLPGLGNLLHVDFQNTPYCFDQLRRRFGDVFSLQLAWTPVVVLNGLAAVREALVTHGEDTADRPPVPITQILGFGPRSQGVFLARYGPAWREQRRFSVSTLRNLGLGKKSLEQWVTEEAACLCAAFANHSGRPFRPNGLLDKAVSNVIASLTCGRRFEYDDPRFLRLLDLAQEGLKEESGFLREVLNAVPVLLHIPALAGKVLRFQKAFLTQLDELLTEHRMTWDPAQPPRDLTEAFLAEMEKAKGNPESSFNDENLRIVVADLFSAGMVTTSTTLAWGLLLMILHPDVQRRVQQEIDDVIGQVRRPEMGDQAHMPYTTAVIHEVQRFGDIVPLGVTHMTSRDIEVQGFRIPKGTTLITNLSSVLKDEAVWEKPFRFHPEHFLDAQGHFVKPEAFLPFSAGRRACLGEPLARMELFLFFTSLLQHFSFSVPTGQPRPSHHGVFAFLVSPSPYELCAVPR

On to `COc1cc(N)nc2[nH]c(-c3ccc(F)cc3)c(-c3ccncc3)c12`, for which the IC50 result (in data set [1] (jurkat); in data set [2]; against Histamine H2 receptor (cho-k1); in data set [3]) was “Not Active” each time.

As to `CNS(=O)(=O)Cc1ccc2[nH]cc(CCN(C)C)c2c1`, the IC50 entry (in data set [1] (jurkat); in data set [2]; at Histamine H2 receptor (cho-k1); in data set [3]; in data set [4]; at Cytochrome P450 2D6) was “Not Active” in each case. The inhibition constant Ki entry at Cytochrome P450 2D6 is reported as “Not Active”.

On to `CCCc1nn(C)c2c(=O)[nH]c(-c3cc(S(=O)(=O)N4CCN(C)CC4)ccc3OCC)nc12`, for which the IC50 result (in data set [1] (jurkat); in data set [2]; against Histamine H2 receptor (cho-k1); in data set [3]; in data set [4]; against Cytochrome P450 2D6) was “Not Active” in each case. The Ki result on Cytochrome P450 2D6 is given as “Not Active”.

On to `COc1ccc(/C=C/C(=O)Nc2ccccc2C(=O)O)cc1OC`, for which the IC50 result (in data set [1] (jurkat); in data set [2]; on Histamine H2 receptor (cho-k1); in data set [3]; in data set [4]; at Cytochrome P450 2D6) was “Not Active” throughout. Further, on Cytochrome P450 2D6, the Ki result was “Not Active”.

In the case of `CCOC(N)=O`, the IC50 entry (in data set [1] (jurkat); in data set [2]; at Histamine H2 receptor (cho-k1); in data set [3]; in data set [4]; at Cytochrome P450 2D6) was “Not Active” in each case. Moreover, the Ki entry on Cytochrome P450 2D6 is listed as “Not Active”.

For the compound `CC(=O)Nc1nnc(S(N)(=O)=O)s1` [ACETAZOLAMIDE], the IC50 entry (in data set [1] (jurkat); in data set [2]; on Histamine H2 receptor (cho-k1); in data set [3]; in data set [4]; against Cytochrome P450 2D6) was “Not Active” in each case. For the same compound, the Ki result at Cytochrome P450 2D6 is listed as “Not Active”.

Take `O=c1[nH]c2ccccc2n1CCCN1CCC(n2c(=O)[nH]c3cc(Cl)ccc32)CC1` [DOMPERIDONE]: the IC50 entry (in data set [1] (jurkat); in data set [2]; at Histamine H2 receptor (cho-k1); in data set [3]; in data set [4]) was “Not Active” each time.

`CC1=C(CC(=O)O)c2cc(F)ccc2/C1=C\c1ccc(S(C)(=O)=O)cc1` [EXISULIND]: the IC50 entry (in data set [1] (jurkat); in data set [2]; against Histamine H2 receptor (cho-k1); in data set [3]; in data set [4]; at Cytochrome P450 2D6) was “Not Active” in each case. At Cytochrome P450 2D6, the Ki result is given as “Not Active”.

In the case of `CC(C)OC(=O)C(C)(C)Oc1ccc(C(=O)c2ccc(Cl)cc2)cc1` [FENOFIBRATE], the IC50 result (in data set [1] (jurkat); in data set [2]; against Histamine H2 receptor (cho-k1); in data set [3]; in data set [4]) was “Not Active” in each case.

`OCCN1CCN(CCCN2c3ccccc3Sc3ccc(C(F)(F)F)cc32)CC1` [FLUPHENAZINE]: the IC50 in data set [1] (read-out: IC50) was 20 nM; in data set [2] it was “Not Active”; on Histamine H2 receptor (read-out: IC50) it was 1230 nM; in data set [3], “Not Active”; in data set [4] it was “Not Active”. In addition, the Ki in data set [1] is 8.57 nM; at Histamine H2 receptor (read-out: Ki), 1200 nM.

On to `CN1C2CCCC1CC(NC(=O)c1nn(C)c3ccccc13)C2` (stereo unspecified) [GRANISETRON], for which the IC50 result (in data set [1] (jurkat); in data set [2]; at Histamine H2 receptor (cho-k1); in data set [3]; in data set [4]) was “Not Active” each time.

As to `Nc1nc2c(c(=O)[nH]1)N(C=O)C(CNc1ccc(C(=O)N[C@@H](CCC(=O)O)C(=O)O)cc1)CN2` (stereo partly specified) [LEUCOVORIN], the half-inhibitory concentration (IC50) result (in data set [1] (jurkat); in data set [2]; against Histamine H2 receptor (cho-k1); in data set [3]; in data set [4]; against Cytochrome P450 2D6) was “Not Active” in each case. Moreover, at Cytochrome P450 2D6, the Ki result was “Not Active”.

`C[C@@H](O)[C@H]1C(=O)N2C(C(=O)O)=C(S[C@@H]3CN[C@H](C(=O)N(C)C)C3)[C@H](C)[C@H]12` [MEROPENEM]: the IC50 result (in data set [1] (jurkat); in data set [2]; against Histamine H2 receptor (cho-k1); in data set [3]; in data set [4]; at Cytochrome P450 2D6) was “Not Active” throughout. For the same compound, the Ki result on Cytochrome P450 2D6 is given as “Not Active”.

On to `CC[C@@H](CO)NC(=O)[C@@H]1C=C2c3cccc4c3c(cn4C)C[C@H]2N(C)C1` [METHYSERGIDE], for which the IC50 entry (in data set [2]; against Histamine H2 receptor (cho-k1); in data set [3]; in data set [4]; against Cytochrome P450 2D6) was “Not Active” each time. Further, on Cytochrome P450 2D6, the Ki result was “Not Active”.

Turning to `CCN(CC)CC#CCOC(=O)C(O)(c1ccccc1)C1CCCCC1` (stereo unspecified) [OXYBUTYNIN], the IC50 in data set [1] (read-out: IC50) is 24.2 nM; in data set [2], “Not Active”; at Histamine H2 receptor (cho-k1) it was “Not Active”; in data set [3] it was “Not Active”; in data set [4], “Not Active”; against Cytochrome P450 2D6, “Not Active”. Also, the Ki in data set [1] was 10.2 nM; at Cytochrome P450 2D6 it was “Not Active”.

For `O=P(O)(O)C(O)(Cc1cccnc1)P(=O)(O)O` [RISEDRONIC ACID], the IC50 result (in data set [1] (jurkat); in data set [2]; at Histamine H2 receptor (cho-k1); in data set [3]; in data set [4]; against Cytochrome P450 2D6) was “Not Active” each time. In addition, on Cytochrome P450 2D6, the Ki entry is “Not Active”.

In the case of `CN(CCOc1ccc(CC2SC(=O)NC2=O)cc1)c1ccccn1` (stereo unspecified) [ROSIGLITAZONE], the IC50 result (in data set [1] (jurkat); in data set [2]; against Histamine H2 receptor (cho-k1); in data set [3]; in data set [4]) was “Not Active” throughout.

`C=C(C)[C@H]1Cc2c(ccc3c2O[C@@H]2COc4cc(OC)c(OC)cc4[C@@H]2C3=O)O1` [ROTENONE]: the IC50 entry (in data set [1] (jurkat); in data set [2]; on Histamine H2 receptor (cho-k1); in data set [3]; in data set [4]; against Cytochrome P450 2D6) was “Not Active” each time. For the same compound, the inhibitory constant (Ki) result at Cytochrome P450 2D6 was “Not Active”.

In the case of `C#CCN(C)[C@H](C)Cc1ccccc1` [SELEGILINE], the IC50 result (in data set [1] (jurkat); in data set [2]; against Histamine H2 receptor (cho-k1); in data set [3]; in data set [4]; at Cytochrome P450 2D6) was “Not Active” in each case. The Ki result at Cytochrome P450 2D6 is “Not Active”.

With `CO[C@H]1C[C@@H]2CC[C@@H](C)[C@@](O)(O2)C(=O)C(=O)N2CCCC[C@H]2C(=O)O[C@H]([C@H](C)C[C@@H]2CC[C@@H](O)[C@H](OC)C2)CC(=O)[C@H](C)/C=C(\C)[C@@H](O)[C@@H](OC)C(=O)[C@H](C)C[C@H](C)/C=C/C=C/C=C/1C` [SIROLIMUS], the IC50 result (in data set [1] (jurkat); in data set [2]; at Histamine H2 receptor (cho-k1); in data set [3]; in data set [4]; at Cytochrome P450 2D6) was “Not Active” each time. Further, the Ki entry on Cytochrome P450 2D6 is listed as “Not Active”.

On to `CN[C@@H]1[C@H](O)[C@H](NC)[C@H]2O[C@@]3(O)C(=O)C[C@@H](C)O[C@H]3O[C@@H]2[C@H]1O` [SPECTINOMYCIN], for which the IC50 result (in data set [1] (jurkat); in data set [2]; at Histamine H2 receptor (cho-k1); in data set [3]; in data set [4]; at Cytochrome P450 2D6) was “Not Active” throughout. For the same compound, on Cytochrome P450 2D6, the Ki result is on record as “Not Active”.

With `CCS(=O)(=O)CCn1c([N+](=O)[O-])cnc1C` [TINIDAZOLE], the IC50 result (in data set [1] (jurkat); in data set [2]; at Histamine H2 receptor (cho-k1); in data set [3]; in data set [4]) was “Not Active” throughout.

As to `COc1ccc(CN2CCNCC2)c(OC)c1OC` [TRIMETAZIDINE], the IC50 result (in data set [1] (jurkat); in data set [2]; against Histamine H2 receptor (cho-k1); in data set [3]; in data set [4]) was “Not Active” in each case.
